According to patent US7368462B1, “Melanin concentrating hormone antagonists” (The Procter & Gamble Company, priority 2004, dated 2008):

Tests used:
5-HT2c receptor = molecular target: T1, 5-HT2c receptor (Homo sapiens, UniProt P28335); assay: 5-HT2c receptor binding assay (3H-mesulergine competition)
T1 sequence (P28335 33-458): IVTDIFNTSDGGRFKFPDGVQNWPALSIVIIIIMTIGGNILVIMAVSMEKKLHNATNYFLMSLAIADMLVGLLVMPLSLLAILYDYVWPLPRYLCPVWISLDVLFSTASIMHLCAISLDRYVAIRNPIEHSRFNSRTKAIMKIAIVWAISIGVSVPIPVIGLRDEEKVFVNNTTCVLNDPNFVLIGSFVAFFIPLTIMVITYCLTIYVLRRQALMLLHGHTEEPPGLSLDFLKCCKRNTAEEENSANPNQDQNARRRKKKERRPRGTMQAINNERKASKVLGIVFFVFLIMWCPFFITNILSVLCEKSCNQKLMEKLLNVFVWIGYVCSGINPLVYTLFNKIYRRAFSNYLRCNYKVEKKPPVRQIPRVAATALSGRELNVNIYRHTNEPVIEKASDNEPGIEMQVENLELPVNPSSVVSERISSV
Method: Binding assays for serotonin receptor, 5-HT2c receptor MCH antagonist compounds are evaluated for binding to the serotonin 5-HT2c receptor to determine receptor selectivity. Binding activity is assessed using a competitive assay with ^3H-mesulergine (Perkin Elmer), a 5-HT2c selective ligand, on membrane containing the 5-HT2c receptor. Briefly, 1 nM ^3H-mesulergine and varying concentrations of the compound are incubated with 5-HT2c receptor membranes, following an incubation period, the membranes are washed and ^3H-mesulergine bound to membranes is measured in a liquid scintillation counter. The amount of bound ^3H-mesulergine at the varying concentration of competitor compound is used to derive the affinity (Ki) of the compound for the 5-HT2c receptor. 5-HT2c receptor containing membranes are readily available from several companies including Perkin-Elmer and Euroscreen.

MCH1R = MCH1R (UniProt Q99705); assay: MCH1R competition binding assay
Method: In vitro binding and function assays are performed on membranes derived from cells or tissues expressing endogenous MCH1R. Competition binding assays are performed to identify high affinity compounds. Briefly, either radiolabeled or europium labeled MCH with varying concentrations of competitor compound which are incubated with membranes expressing the receptor. Rat brain membrane or cell lines, including but not limited to human Kelly neuroblastoma cells, A-431 epidermoid cells, and rat PC-12 cells are known to express endogenous MCH1R and are used in the assay. Binding is allowed to proceed until equilibrium is reached then bound labeled MCH is separated from free MCH by capturing membranes onto a filter. The filters are washed to remove loosely associated MCH and labeled MCH is quantified. Data is analyzed and IC50 and Ki are calculated to determine compound affinity.

IC50 (5-HT2c receptor)	IC50 (MCH1R)	SMILES
1130 nM	12 nM	CN(C)Cc1ccc2c(CNC(=O)c3ccc(-c4ccc(F)cc4)cc3)cccc2c1 [4′-Fluoro-biphenyl-4-carboxylic acid (6-dimethylaminomethyl-naphthalen-1-ylmethyl)-amide]
2060 nM	70 nM	CCN(CC)Cc1ccc2c(CN(C)C(=O)c3ccc(-c4ccc(C(F)(F)F)cc4)cc3)cccc2c1 [4′-Trifluoromethyl-biphenyl-4-carboxylic acid (6-diethylaminomethyl-naphthalen-1-ylmethyl)-methyl-amide]
